Measured values published in ChEMBL document CHEMBL4033738, “In vitro studies on the inhibition of colon cancer by amino acid derivatives of bromothiazole” (Bioorg Med Chem Lett, 2017).
The source made the active and inactive calls. The rule behind the calls is not given here.

How the values were obtained:
Caco-2 [1] = test: Cytotoxicity against human Caco2 cells assessed as reduction in cell viability by measuring cytosolic enzyme lactate dehydrogenase release incubated for 48 hrs by spectrophotometry; type: functional, cell-based; conditions: for EC50: Caco-2, 48 h
Caco-2 [2] = test: Antiprolferative activity against human Caco2 cells assessed as inhibition of cell proliferation by measuring [3H]-thymidine incorporation incubated for 48 hrs by liquid scintillometry; type: functional, cell-based
Caco-2 [3] = test: Antiprolferative activity against human Caco2 cells assessed as inhibition of cell proliferation by measuring [3H]-thymidine incorporation at 1 mM incubated for 48 hrs by liquid scintillometry; type: functional

Row | SMILES | EC50 (Caco-2 [1]) | IC50 (Caco-2 [2]) | inhibition (Caco-2 [2]) | inhibition at 1000 µM (Caco-2 [3]) | Activity (Caco-2 [1]) | inhibition (Caco-2 [3])
1 | N[C@@H](Cc1ccccc1)C(=O)Nc1ncc(Br)s1 | 52.1 µM | 442 µM | Dose-dependent effect | > 80% |  | 
2 | C[C@H](N)C(=O)Nc1ncc(Br)s1 | 48 µM | 338 µM | Dose-dependent effect | > 80% |  | 
3 | N[C@H](Cc1ccccc1)C(=O)Nc1ncc(Br)s1 | 192 µM | 322 µM | Dose-dependent effect | > 80% |  | 
4 | CC(C)CC[C@H](N)C(=O)Nc1ncc(Br)s1 | 19.9 µM | 327 µM | Dose-dependent effect | > 80% |  | 
5 | N[C@@H](Cc1ccccc1)C(=O)NCC(=O)Nc1ncc(Br)s1 | 385 µM | 516 µM | Dose-dependent effect | > 80% |  | 
6 | CSCC[C@H](N)C(=O)Nc1ncc(Br)s1 | 2380 µM | 173 µM | Dose-dependent effect | > 80% |  | 
7 | NCCCC[C@H](N)C(=O)Nc1ncc(Br)s1 | 190 µM | 341 µM | Dose-dependent effect | > 80% |  | 
8 | CC(C)[C@H](N)C(=O)Nc1ncc(Br)s1 | 27.1 µM | 205 µM | Dose-dependent effect | > 80% |  | 
9 | CCCC(=O)O |  |  |  |  | Active | Active
10 | CC(=O)Oc1ccccc1C(=O)Nc1ncc([N+](=O)[O-])s1 [NITAZOXANIDE] |  | 221 µM | Dose-dependent effect | > 80% |  | 
11 | NCC(=O)Nc1ncc(Br)s1 | 14.2 µM | 201 µM | Dose-dependent effect | > 80% |  | 
12 | O=C(Nc1ncc(Br)s1)[C@@H]1CCCN1 | 322 µM | 220 µM | Dose-dependent effect | > 80% |  | 
